For the test, the target named is T1, Thymidylate kinase (Mycobacterium tuberculosis, UniProt P9WKE1).
T1 sequence (P9WKE1 whole entry): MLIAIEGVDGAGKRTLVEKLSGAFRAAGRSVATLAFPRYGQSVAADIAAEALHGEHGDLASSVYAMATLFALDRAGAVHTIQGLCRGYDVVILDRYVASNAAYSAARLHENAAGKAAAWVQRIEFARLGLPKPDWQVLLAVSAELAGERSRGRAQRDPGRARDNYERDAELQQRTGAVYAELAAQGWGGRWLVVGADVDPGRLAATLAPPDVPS
The experiment in a line: Inhibition of recombinant Mycobacterium tuberculosis TMPK overexpressed in Escherichia coli assessed as inhibition constant by spectrophotometric assay.

In general, Ki refers to the equilibrium dissociation constant of an inhibitor or competing ligand from its target.

For the compound `Cc1cn(C/C=C\CN2c3cccc4cccc(c34)S2(=O)=O)c(=O)[nH]c1=O`, the Ki is 270 nM.

The values above are taken from ChEMBL document CHEMBL5360529, “Pyrimidine derivatives with antitubercular activity” (Eur J Med Chem, 2023).
